# Laboratory results reported in patent publication US8535740B2, “Compositions from Nigella sativa” (priority 2002, dated 2013).
# Columns and labels:
# [1] = tested on: iNOS-mediated NO biosynthesis in 3T3-L1 adipocytes; assay: LTI cytokine-stimulated NO biosynthesis in 3T3-L1 adipocytes; assay type: cell-based, murine; settings: Mus musculus, value computed on the basis of TQ content, LPS/TNFα/IFγ stimulation 20 hours, (95% confidence interval), read-out: Median Inhibitory Concentration for iNOS-mediated NO biosynthesis, 3T3-L Adipocytes
# Procedure: Cell culture and treatment-The murine fibroblast cell line 3T3-L1 was purchased from the American Type Culture Collection (Manassas, Va.) and sub-cultured according to instructions from the supplier. Prior to experiments, cells were cultured in DMEM containing 10% FBS-HI added 50 units penicillin/ml and 50 μg streptomycin/ml, and maintained in log phase prior to experimental setup. Cells were grown in a 5% CO2 humidified incubator at 37° C. Components of the pre-confluent medium included: (1) 10% FBS/DMEM (Fetal Bovine Serum/Dulbecco's Modified Eagle's Medium) containing 4.5 g glucose/L; (2) 50 U/ml penicillin; and (3) 50 μg/ml streptomycin. Growth medium was made by adding 50 ml of heat inactivated FBS and 5 ml of penicillin/streptomycin to 500 ml DMEM. This medium was stored at 4° C. Before use, the medium was warmed to 37° C. in a water bath. […] cells were seeded at an initial density of 6×10^4 cells/cm^2 in 24-well plates. […] Determination of nitrite in waters by microplate fluorescence spectroscopy and HPLC with fluorescence detection. […] After a reaction time of 30 minutes at ambient temperature, the fluorescence was read with 485 nm excitation filter and a 530 nm emission filter in a Packard Fluorocount spectrofluorometer (Model #BF10000, Meridan, Conn.). […] Quantitative analysis of dose-effect relationships: the combined effects of multiple drugs or enzyme inhibitors.
# Caco-2 monolayers = assay: LPS/H2O2-mediated loss of transepithelial electrical resistance in Caco-2 monolayers; assay type: cell-based, human
# Description: Caco-2 Cells—The protocol for growing and differentiation the human Caco-2 colon andenocarcinoma cells was a modification of Protocol 3 as described by Yamashita et al. [Yamashita, S., Konishi, K., Yamazaki, Y., Taki, Y., Sakane, T., Sezaki, H., and Furuyama, Y. (2002) New and better protocols for a short-term Caco-2 cell culture system, J Pharm Sci 91, 669-679]. Caco-2 Human Colon Adenocarcinoma cells were obtained from ATCC (Rockville, Md.; catalog #HTB-37) and maintained in a growth media: DMEM (Dulbecco's Modified Eagles Medium 1×) containing L-glutamine, glucose; Cellgro catalog #35-010CV with the following additions: (1) Penicillin (5,000 IU/mL)/Streptomycin (5,000 μg/mL) Cellgro catalog #30-001C1, (2) 10% FBS—Fetal Bovine Serum, Characterized; Hyclone catalog #SH30071.3, and (3) 1% NEAA—Non Essential Amino Acids; Cellgro catalog #25-025-CI; cells were cultured at 37 C in a humidified air-5% CO2 atmosphere in T175 flasks.
# Differentiation of Caco-2 cells to intestinal epithelial cells—BIOCOAT^R HTS Caco-2 Assay System kits (Becton Dickinson, N.J.; catalog #354801) consisting of 24-well fibrillar collagen coated inserts and feeder trays were used in all experiments and plated as follows. Media was removed from the T175 flasks and cells were washed with 10 mLs PBS (phosphate buffered saline 1× without Ca^++, without Mg^++; Cellgro #25-053-CI). […]
compound,measurement,setting,value
"CC1=CC(=O)C(C(C)C)=CC1=O [Thymoquinone (Sigma), thymoquinone]",IC50,[1],1.9 µg/mL
same,Relative Loss of TEER,"Caco-2 monolayers; 10 uM H2O2 + 50 μg/mL LPS, three hours, positive control set to 100, each material at its tabulated concentration (TQ 5.0, NS8 0.11, NS9 0.99, NS10 0.012, NSSpent#2 0.0005 μg TQ equivalents/mL; Spent#1 5 μg/mL)",111
same,effect on LPS/H2O2-mediated loss of TEER,Caco-2 monolayers; concentrations of Table 6,no effect
